The test system of assay [1] is patients with alcohol dependence. The assay can be described thus: Clinical efficacy on the reduction of alcohol consumption (Studies 12014A, 12023A, 12013A). Type of assay: in vivo, human. As for the experimental part:
The efficacy of nalmefene in the reduction of alcohol consumption in patients with alcohol dependence (DSM-IV) has been evaluated in studies 12014A, 12023A and 12013A. The efficacy of nalmefene was measured using two co-primary endpoints: the change from baseline in the monthly number of heavy drinking days (HDDs) and the change from baseline in the average daily total alcohol consumption (TAC).
(§1) Another approach to identify patients with an anxiety disorder is by defining Anxiety Disorder at baseline as any ongoing medical history coded by the Medical Dictionary for Regulatory Activities (MedDRA) Preferred Term as ‘Acute Stress Disorder’, ‘Agoraphobia’, ‘Anxiety’, ‘Anxiety Disorder’, ‘Emotional Distress’, ‘Generalised Anxiety Disorder’, ‘Nervousness’, ‘Nosophobia’, ‘Obsessive-Compulsive Disorder’, ‘Panic Attack’, ‘Panic Disorder’, ‘Panic Disorder With Agoraphobia’, ‘Post-Traumatic Stress Disorder’, ‘Social Phobia’ and/or ‘Stress and Tension’. In examples 1 and 2 below patients classified with an anxiety disorder at baseline were selected based on said MedDRA terms.
The efficacy of nalmefene on the reduction of alcohol consumption in patients with alcohol dependence (DSM-IV) was evaluated in two efficacy studies (Study 12014A and Study 12023A) and a safety study (Study 12013A). All studies were multi-national, multi-site, randomised, double blind, two parallel group, placebo controlled studies. The efficacy was evaluated over 24 weeks of treatment. The studies included outpatients, aged ≧18 years, with a primary diagnosis of alcohol dependence. […] Patients with psychiatric co-morbidity (that is, patients who used stable doses of antipsychotics and/or certain antidepressants) were also included unless the treatment of the psychiatric comorbidity had to take priority over treatment of the drinking problem, or was likely to interfere with study treatment or impairs treatment compliance.
The studies included in total 1997 patients, 1173 of whom were treated with nalmefene 18 mg in an as-needed dosing regimen. A motivational and adherence enhancing intervention was administered to all the patients to support the patients in changing their behavior and to enhance adherence to treatment.
The efficacy of nalmefene on the reduction of alcohol consumption was measured using two co-primary endpoints: the change in the monthly number of heavy drinking days (HDDs) and the change in the average daily total alcohol consumption (TAC). A HDD was defined as a day with a consumption ≧60 g alcohol for men and ≧40 g for women.

The test system is the same in assay [2]. The assay can be described thus: Clinical efficacy measured by POMS score (Studies 12014A, 12023A, 12013A). It is filed as in vivo, human.
Excerpt: The term “POMS” is an abbreviation of “profile of mood states” and refers to a self-report inventory scale developed to assess the effect of e.g. new medication on mood states and mood changes. The scale measures six domains: Tension-Anxiety, Depression-Rejection, Anger-Hostility, Vigour-Activity, Fatigue-Inertia, and Confusion-Bewilderment. A total mood disturbance (TMD) score can be calculated. In general, a lower POMS score indicates a better mood state than a higher score except for vigour-activity, for which a higher POMS score indicates a better mood state. The scale has been described e.g. by McNair et al., Profile of mood states. San Diego, Calif.: Educational and Industrial Testing Service and by Nyenhios and Yamamoto, J. Clin. Psychology, (1999), Vol. 55(1): 79-86.
Assessment of POMs scores in Studies 12014A, 12023A and 12013A was used to evaluate the effect of nalmefene on mood states and mood changes throughout the study. […] Tables 5 and 7 indicate that patients with an anxiety disorder at baseline had higher POMS scores at baseline when compared to those patients without anxiety disorders. The change in POMS scores from baseline are illustrated in FIGS. 3-9. […] A remarkable improvement is seen over the weeks 8-20.
as §1
Assessment of POMs scores in Studies 12014A, 12023A and 12013A was used to evaluate the effect of nalmefene on mood states and mood changes throughout the study. […]

Assay [3] shares this test system. The assay can be described thus: Clinical efficacy measured by SF-36 Mental Component Summary (FAS, OC). It is filed as in vivo, human. The conditions noted are these: for SF-36 Mental Component Summary, Change to Week 12, Mean ± SE / SF-36 Mental Component Summary, Change to Week 24, Mean ± SE: pooled studies, FAS, OC. From the text: Another method for measuring a patient's health status is by the SF-36 which is a patient-reported outcome developed as a general measure of perceived health status. The mental component summary score focuses on mental aspects of health related quality of life. Higher scores correspond to better health status or well-being.

In assay [4] the test system is rats. The assay can be described thus: Vogel test in rats. Type of assay: in vivo, rat. The conditions noted are these: 0.01, 0.1 and 1 mg/kg s.c. 30 minutes before the test; 3-minute test; vs vehicle. From the text:
Pairing of water drinking with […] shock punishment will induce a conflict in water deprived rats and lead to less frequent water seeking behaviour. Pretreatment of rats with an anxiolytic will counteract the conflict and increase the frequency of water seeking. The test can be conducted as described in detail by Vogel et al., Psychopharmacology, (1971), 21: pp. 1-7. In brief, rats are adapted to the test chambers, a Plexiglas box, equipped with a grid floor made of stainless steel bars and a drinking bottle with tap water. After the adaptation period, the animals are deprived of water and then placed in the test chamber for free access to the drinking bottle for a short period. Afterwards, they are allowed a short free-drinking session in their home cage. After another water deprivation period, the rats are placed again in the test chamber and allowed to drink for a very short time (30 s); immediately afterwards, their drinking attempts are punished with an electric shock. […] The number of shocks accepted throughout a 5-min experimental session was recorded.
Nalmefene was tested as the sole active compound in the Vogel model in rats. […] The number of punished drinks was counted during a 3-minute test. Nalmefene was evaluated at 3 doses (0.01, 0.1 and 1 mg/kg), administered s.c. 30 minutes before the test, and compared with a vehicle control group.

Assay [5] concerns rats. In words: Elevated plus maze test in rats. It is filed as in vivo, rat. To be noted: 0.01, 0.1 and 1 mg/kg s.c. 30 minutes before the test; 5 minutes; vs vehicle. From the text:
Rats have an aversion of open spaces and avoid them by confining movements to enclosed spaces or to the edges of a bounded space. Anxiolytic activity can be tested in a test setting consists of a plus-shaped apparatus with two open and two enclosed arms, each with an open roof, elevated 40-70 cm from the floor according to Pellow et al., J. Neurosci. Methods. (1985) August; 14(3):149-67. Pretreatment of rats with anxiolytic active compounds will increase in the proportion of time spent in the open arms (time in open arms/total time in open or closed arms), and an increase in the proportion of entries into the open arms (entries into open arms/total entries into open or closed arms). Total number of arm entries and number of closed-arm entries can be employed as measures of general activity.
Nalmefene was tested as the sole active compound in the elevated plus maze test in rats. A rat was placed in the centre of the plus-maze and left to explore for 5 minutes. The number of entries into the open and closed arms and the time spent on the open arms were recorded. The % of open arm entries (open arm entries/total arm entries×100) was calculated. Nalmefene was evaluated at 3 doses (0.01, 0.1 and 1 mg/kg), administered s.c. 30 minutes before the test, and compared with a vehicle control group.

The test system of assay [6] is Mice (NMRI). In words: Marble burying test in mouse. It is filed as in vivo. The conditions noted are these: 0.01 or 1 mg/kg s.c. As for the experimental part: The method, which detects anxiolytic/tranquillizing activity, follows that described by Broekkamp et al (Eur. J. Pharmacol., 126, 223-229, 1986). Mice exposed to novel objects (marbles) will bury them in the sawdust floor covering. Anxiolytics decrease the number of marbles buried at non-sedative doses.
Nalmefene was tested in the marble burying model as the sole active compound. Mice (NMRI) were individually placed in transparent plastic cages (33×21×18 cm) with 5 cm of sawdust on the floor and 25 marbles grouped in the centre of the cage. The cage was covered with an inverted plastic cage. Each test cage, together with the marbles, was impregnated with mouse odor before-hand by leaving 10 mice in the cage for 15 minutes. These mice then played no further role in the experiment.
The number of marbles covered by sawdust (⅔ or more) was counted at the end of a 30 minute test. 12 mice were studied per group. The test was performed blind. Nalmefene was evaluated at 3 doses (0.01, 0.1 and 1 mg/kg), administered s.c. 30 minutes before the test, and compared with a vehicle control group. […]
Data with the test substance were analysed by comparing treated groups with vehicle control using Kruskall-Wallis test followed by Mann-Whitney U tests. Data with the reference substance were analysed using Mann-Whitney U tests. […]

The target in assay [7] is μ receptor (Homo sapiens, UniProt P35372). To be noted: in vitro studies; cited from earlier work.
In assay [8] the target is δ receptor (Homo sapiens, UniProt P41143). The conditions noted are these: in vitro studies; cited from earlier work.
The target of assay [9] is κ receptor (Homo sapiens, UniProt P41145). To be noted: in vitro studies; cited from earlier work.
Setting [10] is: total patient group, nalmefene 18 mg as-needed vs placebo.
Where [11] appears, read: no anxiety disorder at baseline.

δ receptor, sequence (P41143 whole entry): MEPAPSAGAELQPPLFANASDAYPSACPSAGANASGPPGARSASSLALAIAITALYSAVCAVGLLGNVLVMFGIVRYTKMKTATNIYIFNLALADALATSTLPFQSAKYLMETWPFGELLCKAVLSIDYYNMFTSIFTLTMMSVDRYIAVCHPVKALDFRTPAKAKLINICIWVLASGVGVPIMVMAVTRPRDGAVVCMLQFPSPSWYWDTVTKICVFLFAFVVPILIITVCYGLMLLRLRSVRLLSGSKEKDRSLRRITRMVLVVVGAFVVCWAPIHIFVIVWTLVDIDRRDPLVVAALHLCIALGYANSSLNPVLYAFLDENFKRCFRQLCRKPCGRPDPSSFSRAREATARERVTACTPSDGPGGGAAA
κ receptor, sequence (P41145 whole entry): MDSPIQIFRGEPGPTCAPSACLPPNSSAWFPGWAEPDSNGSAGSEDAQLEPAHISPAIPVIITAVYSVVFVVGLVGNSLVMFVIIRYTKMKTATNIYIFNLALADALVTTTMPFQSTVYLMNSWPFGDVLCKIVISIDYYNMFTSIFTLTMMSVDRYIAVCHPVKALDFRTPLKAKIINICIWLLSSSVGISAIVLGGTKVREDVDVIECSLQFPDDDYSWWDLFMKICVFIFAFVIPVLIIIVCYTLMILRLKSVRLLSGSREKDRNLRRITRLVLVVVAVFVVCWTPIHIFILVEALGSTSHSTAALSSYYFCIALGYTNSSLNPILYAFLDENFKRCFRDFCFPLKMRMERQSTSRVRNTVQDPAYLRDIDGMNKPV
μ receptor, sequence (P35372 whole entry): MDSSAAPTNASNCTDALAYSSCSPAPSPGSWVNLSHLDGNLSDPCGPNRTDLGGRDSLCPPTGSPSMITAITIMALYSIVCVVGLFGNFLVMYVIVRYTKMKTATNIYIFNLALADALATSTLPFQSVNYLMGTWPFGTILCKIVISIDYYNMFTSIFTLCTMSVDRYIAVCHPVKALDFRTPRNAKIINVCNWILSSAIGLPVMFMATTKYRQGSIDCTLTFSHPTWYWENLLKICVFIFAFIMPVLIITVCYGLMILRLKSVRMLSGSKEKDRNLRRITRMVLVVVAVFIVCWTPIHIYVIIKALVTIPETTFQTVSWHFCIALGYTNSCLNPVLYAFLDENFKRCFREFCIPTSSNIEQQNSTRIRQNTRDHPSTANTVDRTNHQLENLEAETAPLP

Consider `C=C1CC[C@@]2(O)[C@H]3Cc4ccc(O)c5c4[C@@]2(CCN3CC2CC2)[C@H]1O5` [Nalmefene, 17-(cyclopropylmethyl)-4,5-alpha-epoxy-6-methylenemorphinan-3,14-diol], for which the alcohol consumption entry in [1] (patients with an anxiety disorder at baseline) is on record as “significally reduced”. In addition, in assay [1] (setting [10]), the “reducing TAC (change from baseline in average daily total alcohol consumption)” value is recorded as “superior to placebo” and the “reducing the number of HDDs (change from baseline in monthly number of heavy drinking days)” value is reported as “superior to placebo”. The “difference between nalmefene and placebo measured in HDDs and TAC” value in [1] (week 24, patients with an anxiety disorder at baseline compared with patients without) is given as “merely at the same level”. For the same molecule, the “POMS score, nalmefene vs placebo” value in assay [2] (patients with an anxiety disorder at baseline, end of the study) is recorded as “better POMS score”. In addition, the “POMS total mood disturbance, tension-anxiety, depression-rejection, anger-hostility and confusion, nalmefene vs placebo” value in assay [2] (patients with an anxiety disorder at baseline, weeks 4-24) was “better POMS scores”. Also, the “POMS score, nalmefene vs placebo” value in assay [2] (patients without an anxiety disorder at baseline, throughout the study) is “no pronounced difference between nalmefene and placebo”. The “difference between nalmefene and placebo in the change from baseline in SF-36 mental component summary score” value in [3] (Week 12 and Week 24, patients with an anxiety disorder at baseline compared with patients without) is on record as “more pronounced”. In [3] (anxiety disorder at baseline), the “SF-36 Mental Component Summary, Change to Week 12, Mean ± SE” value worked out at 6.23 ± 1.47 and the “SF-36 Mental Component Summary, Change to Week 24, Mean ± SE” value stood at 7.56 ± 2.24. Further, in assay [3] (setting [11]), the “SF-36 Mental Component Summary, Change to Week 12, Mean ± SE” value was determined as 4.77 ± 0.37 and the “SF-36 Mental Component Summary, Change to Week 24, Mean ± SE” value is recorded as 5.65 ± 0.43. Moreover, the “number of punished drinks” value in assay [4] is “No significant effect”. The “open and closed arm entries, time spent on the open arms, % of open arm entries” value in assay [5] is on record as “No significant effect”. Besides, the “effect on number of marbles covered by sawdust compared with vehicle controls” value in assay [6] is listed as “no significant effects”. The “activity at the μ receptor” value in assay [7] is on record as “antagonist activity”. Further, the “activity at the δ receptor” value in [8] is recorded as “antagonist activity”. Besides, in [9], the “activity at the κ receptor” value is “partial agonist activity”.
